From patent US7589078B2, “Anti-viral nucleoside analogs and methods for treating viral infections, especially HIV infections” (Yale University, priority 2003, dated 2009)
“Also recorded” adds a separate entry of the source. Read-outs that look alike come from different tables or passages of the source.

Legend:
HIV = details: Maag et al (29), O-Yang et al (32); cited from earlier work
MT-2 cells = assay: Cellular toxicity, MT-2 cell growth; type: cell-based; details: for IC50: Homo sapiens, MT2, MT-2 cells, read-out: ID50: concentration required to inhibit MT-2 cell growth by 50%
From the text: (§1) The basic procedures are similar.

HIV-1 strain IIIB [1] = assay: Antiviral activity in MT-2 cells infected with HIV-1 strain IIIB (MTT); type: cell-based
Method: Determination of antiviral activity: Compounds were tested in MT-2 cells infected with HIV-1 strain IIIB essentially as described previously (31). […]. Calculations of the percent protection and isobologram combination studies are described (12).

thymidine kinase (TK-1) [2] = molecular target: T1, thymidine kinase (TK-1) (Homo sapiens, UniProt P04183); assay: Thymidine kinase assay with added nucleoside ([14C]-dThd to dTMP); details: [14C]-dThd 25 μM, added nucleoside 250 μM; compared to reactions with no additions
T1 sequence (P04183 1-234): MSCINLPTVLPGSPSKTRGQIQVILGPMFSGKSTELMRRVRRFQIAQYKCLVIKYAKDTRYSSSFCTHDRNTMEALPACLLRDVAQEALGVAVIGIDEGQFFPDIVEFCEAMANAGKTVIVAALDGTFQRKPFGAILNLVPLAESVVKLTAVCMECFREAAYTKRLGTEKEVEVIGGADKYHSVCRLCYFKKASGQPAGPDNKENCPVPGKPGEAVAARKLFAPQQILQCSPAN
Method: After two additional washes in ethanol, the discs were dried and placed in scintillation vials that contained 5 ml SafeScint Scintillation Cocktail (American Bioanalytical, Natick, Mass.). The amount of radioactivity, which represents the amount of dTMP formed, was quantitated in a Beckman LS5000TD Scintillation Counter (Beckman Instruments Inc., Palo Alto, Calif.).

Acid stability study = type: physicochemical; details: 1N HCl, pH 1, 37° C., 2.5 h, HPLC
Method: Acid stability studies: Nucleoside samples were mixed with 1N HCl and incubated at 37° C. for 2.5 h. Then the samples were examined by HPLC using a Bechman ODS column employing a gradient of water to 80% methanol.

[3] = tested on: mtDNA content of CEM cells; assay: Mitochondrial DNA content in CEM cells (Southern blot); type: cell-based; details: for IC50: four days, read-out: Mitochondrial DNA Content ID50
Method: Mitochondrial DNA: The effect of nucleoside analogs on mtDNA content was assessed as described previously (2). […] Cells treated with drugs at various concentrations either as single agents or in combination were grown for four days. Cells were then harvested, treated with proteinase K and DNase free RNase. Extracts were applied to nylon membranes and hybridized with an mtDNA probe. After stripping the membrane the load was normalized by rehybridizing the membrane with an Alu probe. Blots were quantitated with a Molecular Dynamics personal densitometer SI with ImageQuaNT analysis software.

[4] = molecular target: T2, thymidine phosphorylase (TP) (Homo sapiens, UniProt P19971); assay: Thymidine phosphorylase assay; type: in vitro ADME; details: partially purified TP from human liver
T2 construct: using a partially purified prepartion of human liver extract (28) as a source of the thymidine phosphorylase (TP); from tissue; host or cells: human liver extract, partially purified
T2 sequence (P19971 11-482): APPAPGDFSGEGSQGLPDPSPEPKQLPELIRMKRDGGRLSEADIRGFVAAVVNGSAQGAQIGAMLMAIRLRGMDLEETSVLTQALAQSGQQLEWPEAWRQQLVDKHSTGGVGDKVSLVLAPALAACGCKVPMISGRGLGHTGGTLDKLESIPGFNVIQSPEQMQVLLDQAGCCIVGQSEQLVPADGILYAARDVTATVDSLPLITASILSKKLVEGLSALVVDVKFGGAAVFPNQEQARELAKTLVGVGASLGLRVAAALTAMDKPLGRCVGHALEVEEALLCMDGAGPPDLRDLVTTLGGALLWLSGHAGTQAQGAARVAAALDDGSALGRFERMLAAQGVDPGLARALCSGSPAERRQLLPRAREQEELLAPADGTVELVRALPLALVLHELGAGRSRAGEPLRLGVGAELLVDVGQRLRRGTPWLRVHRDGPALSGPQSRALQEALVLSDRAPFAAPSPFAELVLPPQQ
Method: Thymidine Phosphorylase Assays: Nucleoside analogs (100 μM) were incubated in 75 mM potassium phosphate buffer pH 7.3 at 37° C. using a partially purified prepartion of human liver extract (28) as a source of the thymidine phosphorylase (TP). After incubation, the reaction was stopped by the addition of trichloroacetic acid to a final concentration of 15%. The samples were then incubated on ice. After the acid insoluble components were removed by centrifugation, the supernatant was neutralized by two extractions with one half volume of trioctylamine/freon (45:55). The aqueous supernatants were examined by HPLC using the Beckman ODS column method, as described in Acid Stability Studies.

[5] = tested on: CEM cellular extract supplemented with partially purified TK-1 and recombinant human dTMP kinase; assay: Phosphorylation to triphosphate in CEM cellular extract with TK-1 and dTMP kinase; type: biochemical; details: unpublished results
thymidine kinase (TK-1) [6] = molecular target: T1, thymidine kinase (TK-1); assay: Monophosphorylation of analogs by thymidine kinase; type: biochemical; set-up: phosphorylated by thymidine kinase (TK-1) from CEM cells; endogenous in cells; details: for Relative Vmax: 250 μM dThd or analog, 2.4 mM ATP, 0.07 unit TK-1, 37° C., 285 min, dThd = 100
Method: Monophosphorylation of Analogs by Thymidine Kinase: All the analogs were tested for their ability to be phosphorylated by thymidine kinase (TK-1) from CEM cells. This enzyme was purified by an affinity column technique developed in this laboratory (7). […] At the end of the incubation time the reaction was stopped by the addition of 3 parts cold HPLC grade methanol. After incubating on ice for at least 10 min. the methanol insoluble material is precipitated by centrifugation and the methanol soluble supernatants were placed into clean microfuge tubes. These samples were brought to dryness in a Speedvac Centrifuge. The samples were dissolved in water and separated on a Shimatzu HPLC model SCL 10Avp using a gradient of water to 300 mM potassium phosphate and a Whatman 10/25 particle SAX column. Km and relative Vmax studies were done in a similar fashion, using the same mixture and different amounts of substrate and enzyme.

CEM cells = assay: Cellular toxicity in CEM cells (cell counts); details: for IC50: Homo sapiens, CCRF-CEM, 96 h, read-out: Cellular ID50
Method: The basic procedures are similar. The cells are seeded a low concentration, then serial dilutions of test compound are added. […] After 48 to 96 h incubation at 37° C. in a 5% CO2 humidified incubator the assay is ended. The drug treated samples are compared to the untreated controls. This is accomplished in suspension cell lines by counting cell numbers either with a hemocytometer or by using a Coulter Counter.
The numbers in parentheses represent the mean and standard deviations of percentage of untreated CEM control cells at the concentration indicated.

H-9 cells = assay: Toxicity in H-9 cells alone and in combination (Coulter Counter); type: cell-based; details: for Percent of Untreated Controls: H-9 cells, 48 h
From the text: as §1

HIV-1 strain IIIB [7] = details: MT-2 cells; EC50 reported previously (17); read-out: EC50: effective concentration required to achieve 50% protection from HIV in MT-2 cells; cited from earlier work
[8] = substrate: C#C[C@@]1(CO)C=C[C@H](n2cc(C)c(=O)[nH]c2=O)O1; assay: Monophosphorylation of analogs by thymidine kinase; type: biochemical; details: other: phosphorylation by human cytoplasmic thymidine kinase; pH 7.5
Method: Monophosphorylation of Analogs by Thymidine Kinase: All the analogs were tested for their ability to be phosphorylated by thymidine kinase (TK-1) from CEM cells. […] At the end of the incubation time the reaction was stopped by the addition of 3 parts cold HPLC grade methanol. After incubating on ice for at least 10 min. the methanol insoluble material is precipitated by centrifugation and the methanol soluble supernatants were placed into clean microfuge tubes. These samples were brought to dryness in a Speedvac Centrifuge. The samples were dissolved in water and separated on a Shimatzu HPLC model SCL 10Avp using a gradient of water to 300 mM potassium phosphate and a Whatman 10/25 particle SAX column. Km and relative Vmax studies were done in a similar fashion, using the same mixture and different amounts of substrate and enzyme.

[9] = substrate: Cc1cn([C@H]2C=C[C@@H](CO)O2)c(=O)[nH]c1=O; assay: purified protein, by the assay type; details: other: phosphorylation by human cytoplasmic thymidine kinase; pH 7.5; 37.0 °C

## Cc1cn([C@H]2C=C[C@](CO)(N=[N+]=[N-])O2)c(=O)[nH]c1=O [4′-azido D4T]
HIV
  Anti-HIV activity as described by others: inactive against HIV at non-toxic levels

## Cc1cn([C@H]2C=C[C@@H](CO)O2)c(=O)[nH]c1=O [D4T, 2′,3′-Didehydro-3′-deoxythymidine, reference compound]
MT-2 cells
  IC50: 98 ± 10.8 µM
HIV-1 strain IIIB [1]; Human immunodeficiency virus 1, IIIB, MT2, read-out: EC50: effective concentration required to achieve 50% protection from HIV in MT-2 cells
  EC50: 1.3 ± 0.4 µM
HIV-1 strain IIIB [1]; Human immunodeficiency virus 1, IIIB, MT2, read-out: EC50 for single agents (isobologram study)
  EC50: 1.4 µM
Thymidine kinase (TK-1) [2]
  Percent of Activity: 106.3 ± 7.7%
Acid stability study
  Stability at pH 1: No detectable breakdown
[3]; Homo sapiens, CCRF-CEM, 96 h
  IC50: 9.3 ± 1.4 µM
[4]
  Break down by thymidine phosphorylase, times slower than dThd: at least 10 times
[5]
  Phosphorylation to the triphosphate metabolite: more efficiently phosphorylated to the triphosphate metabolite than 4′-ethynyl D4T
Thymidine kinase (TK-1) [6]
  Relative Vmax: 2.1 ± 0.7
Thymidine kinase (TK-1) [6]; purified human TK-1
  Rate of conversion to the monophosphate form: approximately 2% of dThd
CEM cells
  IC50: 60 ± 18 µM

## C#C[C@@]1(CO)C=C[C@H](n2cc(C)c(=O)[nH]c2=O)O1 [4′-ethynyl D4T, 2′,3′-didehydro-3′-deoxy-4′-ethynylthymidine]
H-9 cells; H9 cells, 48 h assay
  Toxic interaction on cell growth in combination with 3TC and LFd4C: no significant increase in toxic interactions
H-9 cells; 25 μM 4′-ethynyl D4T plus 5 μM 3TC
  Percent of Untreated Controls: 98 ± 2%
H-9 cells; 25 μM 4′-ethynyl D4T plus 5 μM LFd4C
  Percent of Untreated Controls: 62 ± 3%
H-9 cells; 25 μM 4′-ethynyl D4T plus 10 μM LFd4C
  Percent of Untreated Controls: 58 ± 4%
H-9 cells; 25 μM 4′-ethynyl D4T plus 20 μM 3TC
  Percent of Untreated Controls: 88 ± 3%
H-9 cells; 25 μM 4′-ethynyl D4T plus 100 μM 3TC
  Percent of Untreated Controls: 85 ± 3%
H-9 cells; 25 μM 4′-ethynyl D4T, no additive
  Percent of Untreated Controls: 97 ± 7%
H-9 cells; 50 μM 4′-ethynyl D4T plus 5 μM 3TC
  Percent of Untreated Controls: 99 ± 10%
H-9 cells; 50 μM 4′-ethynyl D4T plus 5 μM LFd4C
  Percent of Untreated Controls: 72 ± 5%
H-9 cells; 50 μM 4′-ethynyl D4T plus 10 μM LFd4C
  Percent of Untreated Controls: 64 ± 5%
H-9 cells; 50 μM 4′-ethynyl D4T plus 20 μM 3TC
  Percent of Untreated Controls: 87 ± 6%
H-9 cells; 50 μM 4′-ethynyl D4T plus 100 μM 3TC
  Percent of Untreated Controls: 84 ± 6%
H-9 cells; 50 μM 4′-ethynyl D4T, no additive
  Percent of Untreated Controls: 102 ± 6%
MT-2 cells
  IC50: > 256 µM
MT-2 cells; MT-2/IIIB system
  Toxicity compared with D4T: less toxic than the parental compound D4T
HIV-1 strain IIIB [1]; Human immunodeficiency virus 1, MT2, MT-2/HIV IIIB system, FIG. 10, read-out: EC50 for single agents (isobologram study)
  EC50: 0.5 µM
HIV-1 strain IIIB [1]; MT-2/IIIB anti HIV-1 system, FIG. 8
  Anti-HIV activity compared with D4T: more effective against HIV
HIV-1 strain IIIB [1]; dCyd 10 μM in the presence of THU 5 μM, FIG. 9
  Effect of addition of dCyd on the antiviral activity: no significant effect
HIV-1 strain IIIB [1]; dThd 10 μM and 1 μM added to standard antiviral assay, FIG. 9
  Effect of addition of dThd on the antiviral activity: decreased the antiviral effect
HIV-1 strain IIIB [1]; in combination with 3TC
  Antiviral interaction in combination (isobologram): synergistic
HIV-1 strain IIIB [1]; in combination with AZT (data not shown)
  Antiviral interaction in combination (isobologram): only additive
HIV-1 strain IIIB [1]; in combination with LFd4C
  Antiviral interaction in combination (isobologram): synergistic
HIV-1 strain IIIB [1]; in combination with ddI (data not shown)
  Antiviral interaction in combination (isobologram): only additive
Thymidine kinase (TK-1) [2]
  Percent of Activity: 83.9 ± 6.1%
Acid stability study
  Stability at pH 1: No detectable breakdown
[3]; Homo sapiens, CCRF-CEM, 96 h
  IC50: > 100 µM
[3]; at 100 μM
  Mitochondrial DNA content, percentage of untreated CEM control cells: 94 ± 4%
[3]
  IC50: 100 µM
[4]; 100 μM nucleoside, 37° C., FIG. 11
  Break down by thymidine phosphorylase: below the detection level
HIV-1 strain IIIB [7]
  EC50: 0.25 ± 0.14 µM
Thymidine kinase (TK-1) [6]
  Relative Vmax: 3.8 ± 0.8
Thymidine kinase (TK-1) [6]; purified human TK-1
  Rate of phosphorylation by TK-1, in words: superior to D4T; also recorded: twice as fast as D4T
CEM cells; CEM cells, at 100 μM
  Cell count, percentage of untreated CEM control cells: 77 ± 16%
CEM cells
  IC50: > 100 µM

B1: thymidine kinase (TK-1) (Homo sapiens) (protein)
chain: MSCINLPTVLPGSPSKTRGQIQVILGPMFSGKSTELMRRVRRFQIAQYKCLVIKYAKDTRYSSSFCTHDRNTMEALPACLLRDVAQEALGVAVIGIDEGQFFPDIVEFCEAMANAGKTVIVAALDGTFQRKPFGAILNLVPLAESVVKLTAVCMECFREAAYTKRLGTEKEVEVIGGADKYHSVCRLCYFKKASGQPAGPDNKENCPVPGKPGEAVAARKLFAPQQILQCSPAN
notes: phosphorylated by thymidine kinase (TK-1) from CEM cells; endogenous in cells
[8]
  Km: 52 µM
[9]
  Km: 133 µM
